According to patent US7585895B2, “Therapeutic substituted cyclopentanes” (Allergan, Inc., priority 2005, dated 2009):

target: T1, hEP1 (Homo sapiens, UniProt P34995); assay: FLIPR calcium signal, EP1; assay type: cell-based; conditions: HEK-293(EBNA)
T1 construct: expressed in transfected cells
T1 sequence (P34995 1-402): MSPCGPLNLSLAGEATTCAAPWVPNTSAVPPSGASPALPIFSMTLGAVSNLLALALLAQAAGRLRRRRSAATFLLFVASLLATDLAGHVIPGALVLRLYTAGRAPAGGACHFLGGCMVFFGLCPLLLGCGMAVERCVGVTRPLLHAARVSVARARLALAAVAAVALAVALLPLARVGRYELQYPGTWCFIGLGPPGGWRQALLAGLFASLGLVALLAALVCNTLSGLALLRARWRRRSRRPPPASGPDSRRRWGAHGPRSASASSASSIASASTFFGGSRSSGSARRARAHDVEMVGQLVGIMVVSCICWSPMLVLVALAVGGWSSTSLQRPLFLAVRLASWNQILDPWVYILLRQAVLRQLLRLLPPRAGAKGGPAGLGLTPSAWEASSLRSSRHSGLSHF
Description: HEK-293(EBNA) cells, stably expressing one type or subtype of recombinant human prostaglandin receptors (prostaglandin receptors expressed: hDP/Gqs5; hEP1; hEP2/Gqs5; hEP3A/Gqi5; hEP4/Gqs5; hFP; hIP; hTP), were cultured in 100 mm culture dishes in high-glucose DMEM medium containing 10% fetal bovine serum, 2 mM 1-glutamine, 250 μg/ml geneticin (G418) and 200 μg/ml hygromycin B as selection markers, and 100 units/ml penicillin G, 100 μg/ml streptomycin and 0.25 μg/ml amphotericin B.
Cells were seeded at a density of 5×10^4 cells per well in Biocoat® Poly-D-lysine-coated black-wall, clear-bottom 96-well plates (Becton-Dickinson) and allowed to attach overnight in an incubator at 37° C. Cells were then washed two times with HBSS-HEPES buffer (Hanks Balanced Salt Solution without bicarbonate and phenol red, 20 mM HEPES, pH 7.4) using a Denley Cellwash plate washer (Labsystems). After 45 minutes of dye-loading in the dark, using the calcium-sensitive dye Fluo-4 AM at a final concentration of 2 μM, plates were washed four times with HBSS-HEPES buffer to remove excess dye leaving 100 μl in each well. Plates were re-equilibrated to 37° C. for a few minutes.
Cells were excited with an Argon laser at 488 nm, and emission was measured through a 510-570 nm bandwidth emission filter (FLIPR™, Molecular Devices, Sunnyvale, Calif.). Drug solution was added in a 50 μl volume to each well to give the desired final concentration. The peak increase in fluorescence intensity was recorded for each well. On each plate, four wells each served as negative (HBSS-HEPES buffer) and positive controls (standard agonists: BW245C (hDP); PGE2 (HEP1; hEP2/Gqs5; hEP3A/Gqi5; hEP4/Gqs5); PGF2α (hFP); carbacyclin (hIP); U-46619 (hTP), depending on receptor). The peak fluorescence change in each drug-containing well was then expressed relative to the controls.
Compounds were tested in a high-throughput (HTS) or concentration-response (CoRe) format. In the HTS format, forty-four compounds per plate were examined in duplicates at a concentration of 10^−5 M. To generate concentration-response curves, four compounds per plate were tested in duplicates in a concentration range between 10^−5 and 10^−11 M. The duplicate values were averaged. In either, HTS or CoRe format each compound was tested on at least 3 separate plates using cells from different passages to give an n≧3.

SMILES	Ca2+ Signal-EC50 (nM) EP1
O=C(O)CCC/C=C\C[C@@H]1[C@@H](c2ccc(C(O)CC3CCCCC3)cc2)[C@H](O)C[C@H]1Cl (mixture of isomers) [Entry 17, (Z)-7-{(1R,2S,3R,5R)-5-Chloro-2-[4-(2-cyclohexyl-1-hydroxy-ethyl)-phenyl]-3-hydroxy-cyclopentyl}-hept-5-enoic acid]	not active
CC(C)(C)CCCC(O)c1ccc([C@@H]2[C@@H](CCCCCCC(=O)O)[C@H](Cl)C[C@H]2O)cc1 (mixture of isomers) [Entry 20, 7-{(1R,2S,3R,5R)-5-Chloro-3-hydroxy-2-[4-(1-hydroxy-5,5-dimethyl-hexyl)-phenyl]-cyclopentyl}-heptanoic acid]	not active
O=C(O)CCC/C=C\C[C@@H]1[C@@H](c2ccc(C(O)Cc3ccccc3)cc2)[C@H](O)C[C@H]1Cl (mixture of isomers) [Entry 21, (Z)-7-{(1R,2S,3R,5R)-5-Chloro-3-hydroxy-2-[4-(1-hydroxy-2-phenyl-ethyl)-phenyl]-cyclopentyl}-hept-5-enoic acid]	not active
CCCCCC(O)c1ccc([C@@H]2[C@@H](Cc3cccc(CCC(=O)O)c3)[C@H](Cl)C[C@H]2O)cc1 (stereo partly drawn) [Entry 3, 3-(3-{(1R,2S,3R,5R)-5-Chloro-3-hydroxy-2-[4-(1-hydroxy-hexyl)-phenyl]-cyclopentylmethyl}-phenyl)-propionic acid]	not active
CCCC1(C(O)c2cccc([C@@H]3[C@@H](Cc4cccc(CCC(=O)O)c4)[C@H](Cl)C[C@H]3O)c2)CCC1 (stereo partly drawn) [Entry 4, 3-[3-((1R,2S,3R,5R)-5-Chloro-3-hydroxy-2-{3-[hydroxy-(1-propyl-cyclobutyl)-methyl]-phenyl}-cyclopentylmethyl)-phenyl]-propionic acid]	not active
CCCCCC(O)c1ccc([C@@H]2[C@@H](CCCc3ncc(C(=O)O)s3)[C@H](Cl)C[C@H]2O)cc1 (stereo partly drawn) [Entry 5, 2-(3-{(1R,2S,3R,5R)-5-Chloro-3-hydroxy-2-[4-(1-hydroxy-hexyl)-phenyl]-cyclopentyl}-propyl)-thiazole-5-carboxylic acid]	not active
O=C(O)CCCCCC[C@@H]1[C@@H](c2ccc(C(O)CCC3CCCCC3)cc2)[C@H](O)C[C@H]1Cl (stereo partly drawn) [Entry 16, 7-{(1R,2S,3R,5R)-5-Chloro-2-[4-(3-cyclohexyl-1-hydroxy-propyl)-phenyl]-3-hydroxy-cyclopentyl}-heptanoic acid]	not active
O=C(O)CCCCCC[C@@H]1[C@@H](c2ccc(C(O)CC3CCCCC3)cc2)[C@H](O)C[C@H]1Cl (stereo partly drawn) [Entry 18, 7-{(1R,2S,3R,5R)-5-Chloro-2-[4-(2-cyclohexyl-1-hydroxy-ethyl)-phenyl]-3-hydroxy-cyclopentyl}-heptanoic acid]	not active
O=C(O)CCCCCC[C@@H]1[C@@H](c2ccc(C(O)Cc3ccccc3)cc2)[C@H](O)C[C@H]1Cl (stereo partly drawn) [Entry 22, 7-{(1 R,2S,3R,5R)-5-Chloro-3-hydroxy-2-[4-(1-hydroxy-2-phenyl-ethyl)-phenyl]-cyclopentyl}-heptanoic acid]	not active
O=C(O)CCC/C=C\C[C@@H]1[C@@H](c2ccc(C(O)c3ccccc3)cc2)[C@H](O)C[C@H]1Cl (stereo partly drawn) [Entry 28, (Z)-7-{(1R,2S,3R,5R)-5-Chloro-3-hydroxy-2-[4-(hydroxy-phenyl-methyl)-phenyl]-cyclopentyl}-hept-5-enoic acid]	not active

Other lines, results leading:

Ca2+ Signal-EC50 (nM) EP1	SMILES
not active	CCCCCC(O)c1ccc([C@@H]2[C@@H](C/C=C\CCCC(=O)O)[C@H](F)C[C@H]2O)cc1 (mixture of isomers) [Entry 8, (Z)-7-{(1R,2S,3R,5R)-5-Fluoro-3-hydroxy-2-[4-(1-hydroxy-hexyl)-phenyl]-cyclopentyl}-hept-5-enoic acid]
not active	CCCCCC(O)c1ccc([C@@H]2[C@@H](C/C=C\CCCC(=O)O)[C@H](Cl)C[C@H]2O)cc1 (mixture of isomers) [Entry 11, (Z)-7-{(1R,2S,3R,5R)-5-Chloro-3-hydroxy-2-[4-(1-hydroxy-hexyl)-phenyl]-cyclopentyl}-hept-5-enoic acid]
not active	CCCCC(O)c1ccc([C@@H]2[C@@H](C/C=C\CCCC(=O)O)[C@H](Cl)C[C@H]2O)cc1 (mixture of isomers) [Entry 27, (Z)-7-{(1R,2S,3R,5R)-5-Chloro-3-hydroxy-2-[4-(1-hydroxy-pentyl)-phenyl]-cyclopentyl}-hept-5-enoic acid]
not active	CCCCC(O)C(C)(C)c1ccc([C@@H]2[C@@H](C/C=C\CCCC(=O)O)[C@H](Cl)C[C@H]2O)cc1 (mixture of isomers) [Entry 32, (Z)-7-{(1R,2S,3R,5R)-5-Chloro-3-hydroxy-2-[4-(2-hydroxy-1,1-dimethyl-hexyl)-phenyl]-cyclopentyl}-hept-5-enoic acid]
not active	CCCCCC(O)c1ccc([C@@H]2[C@@H](C/C=C\CCCC(=O)O)[C@H](Cl)C[C@H]2O)cc1 (single isomer, unassigned) [Entry 12]
not active	CCCCCC(O)c1ccc([C@@H]2[C@@H](C/C=C\CCCC(=O)O)[C@H](Cl)C[C@H]2O)cc1 (single isomer, unassigned) [Entry 13]
not active	CCCCCC(O)c1ccc([C@@H]2[C@@H](C/C=C\CCCC(=O)O)[C@@H](Cl)C[C@H]2O)cc1 (stereo partly drawn) [Entry 9, (Z)-7-{(1R,2S,3R,5S)-5-Chloro-3-hydroxy-2-[4-(1-hydroxy-hexyl)-phenyl]-cyclopentyl}-hept-5-enoic acid]
not active	CCCCCC(O)c1ccc([C@@H]2[C@@H](CCCCCCC(=O)O)[C@H](Cl)C[C@H]2O)cc1 (stereo partly drawn) [Entry 14, 7-{(1R,2S,3R,5R)-5-Chloro-3-hydroxy-2-[4-(1-hydroxy-hexyl)-phenyl]-cyclopentyl}-heptanoic acid]
not active	O=C(O)CCC/C=C\C[C@@H]1[C@@H](c2ccc(C(O)CCC3CCCCC3)cc2)[C@H](O)C[C@H]1Cl (stereo partly drawn) [Entry 15, (Z)-7-{(1R,2S,3R,5R)-5-Chloro-2-[4-(3-cyclohexyl-1-hydroxy-propyl)-phenyl]-3-hydroxy-cyclopentyl}-hept-5-enoic acid]
not active	O=C(O)CCC/C=C\C[C@@H]1[C@@H](c2ccc(C(O)CCc3ccccc3)cc2)[C@H](O)C[C@H]1Cl (stereo partly drawn) [Entry 23, (Z)-7-{(1R,2S,3R,5R)-5-Chloro-3-hydroxy-2-[4-(1-hydroxy-3-phenyl-propyl)-phenyl]-cyclopentyl}-hept-5-enoic acid]
not active	CCCCCCC(O)c1ccc([C@@H]2[C@@H](C/C=C\CCCC(=O)O)[C@H](Cl)C[C@H]2O)cc1 (stereo partly drawn) [Entry 25, (Z)-7-{(1R,2S,3R,5R)-5-Chloro-3-hydroxy-2-[4-(1-hydroxy-heptyl)-phenyl]-cyclopentyl}-hept-5-enoic acid]
not active	CCCC(O)c1ccc([C@@H]2[C@@H](C/C=C\CCCC(=O)O)[C@H](Cl)C[C@H]2O)cc1 (stereo partly drawn) [Entry 26, (Z)-7-{(1R,2S,3R,5R)-5-Chloro-3-hydroxy-2-[4-(1-hydroxy-butyl)-phenyl]-cyclopentyl}-hept-5-enoic acid]

same assay, conditions: HEK-293(EBNA), read-out: Ca2+ Signal-EC50 (nM) EP1

EC50	SMILES
664 nM	CCCCCC(O)c1ccc([C@@H]2[C@@H](CCCc3ccc(C(=O)O)s3)[C@H](Cl)C[C@H]2O)cc1 (stereo partly drawn) [Entry 2, 5-(3-{(1R,2S,3R,5R)-5-Chloro-3-hydroxy-2-[4-(1-hydroxy-hexyl)-phenyl]-cyclopentyl}-propyl)-thiophene-2-carboxylic acid]
4520 nM	O=C(O)CCCCCC[C@@H]1[C@@H](c2ccc(C(O)CCc3ccccc3)cc2)[C@H](O)C[C@H]1Cl (stereo partly drawn) [Entry 24, 7-{(1R,2S,3R,5R)-5-Chloro-3-hydroxy-2-[4-(1-hydroxy-3-phenyl-propyl)-phenyl]-cyclopentyl}-heptanoic acid]
